Experimental data as given in patent US20170119693A1, “Methods of Improving Glucose Tolerance, Hair Regrowth, and Bio-Availability” (priority 2015, published 2017).

What was measured:
Assay type in all cases: in vivo
[1] = tested on: female Albino Wistar rats; assay: glucose tolerance test; conditions: 25, 50, 75 mg/kg body wt daily for four months; 6 h fast, 2 g/kg intraperitoneally, tail vein blood 0-120 min; p<0.01 ResArgin, p<0.05 resveratrol
Description: (§1) To determine the efficacy of resveratrol-arginine conjugate, six month old female Albino Wistar rats were divided into seven groups (six rats per group) and given the following daily treatment for four months: • Group 1: Control; • Group 2: 25 mg ResArgin/kg body wt; • Group 3: 50 mg ResArgin/kg body wt; • Group 4: 75 mg ResArgin/kg body wt; • Group 5: 25 mg Resveratrol/kg body wt; • Group 6: 50 mg Resveratrol/kg body wt;
Group 7: 75 mg Resveratrol/kg body wt. In one embodiment, glucose tolerance levels were tested via a glucose tolerance test and analysis was performed. Compared to the Control group, glucose tolerance was improved in the ResArgin and resveratrol groups (p<0.01 and p<0.05 respectively) over the experimental period.
In one embodiment, glucose tolerance tests were performed after having the rats fast for 6 hours and injecting 2 g/kg body weight intraperitoneally. Blood was then collected from the tail vein at 0, 15, 30, 60 and 120 minutes after injection.

[2] = tested on: female Albino Wistar rats; assay: hair regrowth assay; conditions: 25, 50, 75 mg/kg body wt daily for four months; dorsal hair plucked 1.5 cm x 1.5 cm, scored two weeks later from digital photographs
Description: as §1
In another embodiment, hair regrowth assay was done and quantified. Compared to the Control group, hair regrowth was improved in the ResArgin and resveratrol groups over the experimental period.
In the hair regrowth assay, dorsal hair was removed by plucking from a square of approximately 1.5 cm×1.5 cm. Hair growth and re-growth was scored two weeks later on the basis of digital photographs.

[3] = tested on: female Albino Wistar rats; assay: four month daily treatment study, investigated age related conditions overall; conditions: summary of the study; effects of ResArgin being more significant than those of resveratrol
Description: as §1
Based on the results of the study performed, the effective dosage of resveratrol arginine conjugate is 10 to 250 mg per kilogram of body weight for a period of at least two weeks.

Oc1ccc(C=Cc2cc(O)cc(O)c2)cc1 [resveratrol]
glucose tolerance compared to the Control group [1]: improved
hair regrowth compared to the Control group [2]: improved
effect on the investigated age related conditions [3]: significantly improved
